The text below walks through data of patent US20190365743A1, “HEDGEHOG PATHWAY INHIBITION FOR TREATMENT OF HIGH-RISK BASAL CELL CARCINOMA OR HIGH-RISK BASAL CELL CARCINOMA NEVUS SYNDROME” (HEDGEPATH PHARMACEUTICALS, INC., priority 2018, published 2019).

This series in a line: plasma trough level of itraconazole required for clinical benefit, and side effects of high doses, in humans with cancer. It counts as in vivo. How it is done:
In particular, the minimum plasma trough level after 4 weeks of therapy required to have a clinically significant effect was at least 1000 ng/ml. […] These side effects associated with these high doses of itraconazole can be effectively managed by giving a selective mineralocorticoid antagonist, such as eplerenone. Accordingly, in some embodiments, the method further comprises administering eplerenone or other mineralocorticoid inhibitor.

`CCC(C)n1ncn(-c2ccc(N3CCN(c4ccc(OCC5COC(Cn6cncn6)(c6ccc(Cl)cc6Cl)O5)cc4)CC3)cc2)c1=O` (centres unmarked) [itraconazole]: for the setting “high doses giving plasma trough of at least 1000 ng/ml”, the “side-effects peculiar to high doses” value is “hypertension, peripheral edema, and hypokalemia”. Moreover, the concentration at 4 weeks (human, plasma, after 4 weeks of therapy, humans with cancer, read-out: minimum plasma trough level required to have a clinically significant effect) is not below 1000 ng/mL.
